One substance from US20060189520A1, “Treatment of diabetes” (priority 2002, published 2006) can be followed below.

Several values for one entry are separate records, joined by “and”; a condition that tells them apart may be missing. Identical values can stand only once.

The experiment has as its system NOD mice with recent-onset diabetes. Put plainly: GLP-1 and gastrin therapy of recent-onset diabetes in NOD mice, fasting blood glucose. To be noted: NOD female mice, GLP-1 100 μg/kg/day, gastrin 3 μg/kg/day, i.p. twice a day. The class given is in vivo, mouse. An excerpt: In this example, the effect of treatment by a combination of GLP-1 and gastrin was examined in NOD mice with recent onset diabetes, to determine whether administration of both GLP-1 and gastrin would prevent severe hyperglycemia, ketoacidosis and death as well as increase pancreatic insulin content in NOD mice with recent-onset diabetes. The I.N.T.™ composition used was gastrin as synthetic human gastrin I having 17 amino acid residues with a Leu residue at amino acid position 15. The GLP-1 used was GLP-1 which is the biologically active fragment of human/mouse GLP-1 (having residues at positions 7-36 compared to the precursor from which the fragment is processed; obtained from Bachem H6795).
Non-obese diabetic (NOD) female mice, ages 12-14 weeks, were monitored for development of onset of diabetes (fasting blood glucose >8.0 to 15 mmol/l), and within 48 hours after onset of symptoms, two groups of mice were each treated as follows: one group was treated with vehicle only; and the other group was administered 100 μg/kg/day of GLP-1, each treatment administered via the intraperitoneal route twice daily.
Therapy was administered for 14 days. Animals were monitored weekly for fasting blood glucose (FBG) levels. FBG levels were measured at about 12 hours after food had been withdrawn, and 24 hours after the last peptide or vehicle injection. Upon cessation of therapy, all mice were monitored for FBG levels for the next 4 weeks (weeks 2-6) so as to determine whether prevention of hyperglycemia persisted after termination of therapeutic treatment.
The protocol includes sampling of these mice for data again at 6 weeks, and blood collected for assay of FBG and plasma C-peptide, and the mice are sacrificed for pancreatic insulin determinations and scoring of islet inflammation (insulitis). From the outset of treatment, mice received neither insulin-replacement treatment nor immunosuppression. The following parameters are assessed: survival rates, pancreatic insulin levels, presence of islet inflammation and fasting blood glucose levels.

Take “GLP-1: biologically active fragment of human/mouse GLP-1 (having residues at positions 7-36); obtained from Bachem H6795”: the “FBG (mM) at day: 0” value (day 0 (start of treatment)) is 12.3 ± 0.9 mM. Also, the “FBG (mM) at day: 7” value (day 7 of treatment) is on record as 14.1 ± 1.8 mM. The “FBG (mM) at day: 14” value (day 14 (end of treatment)) is recorded as 15.3 ± 2.6 mM. Moreover, under “day 18 (treatment stopped at 14 days)”, the “FBG (mM) at day: 18” value is 15.8 mM and 15.8 ± 4.2 mM.
